Experimental data taken from US9340521B2, “Method for dual inhibition of SGLT1 and SGLT2 using diphenylmethane derivatives” (GREEN CROSS CORPORATION, priority 2013, dated 2016).

Key:
Human SGLT2 (hSGLT2) = Human SGLT2 (hSGLT2) (Homo sapiens (Human), UniProt P31639); test: Inhibitory effects on human SGLT2 activities (14C-AMG uptake, sodium-dependent glucose transport assay); format: cell-based; settings: hSGLT2-expressing CHO cells, 37° C. for 2 h, single determinations
From the text: Test 1: Cloning and Cell Line Construction for Human SGLT2
Human SGLT2 (hSGLT2) gene was amplified by PCR from cDNA-Human Adult Normal Tissue Kidney (Invitrogen). The hSGLT2 sequence was cloned into pcDNA3.1(+) for mammalian expression and stably transfected into chinese hamster ovary (CHO) cells. SGLT2-expressing clones were selected based on resistance to G418 antibiotic (Geneticin) and activity in the ^14C-α-methyl-D-glucopyranoside (^14C-AMG) uptake assay.
Test 2: Inhibitory Effects on Human SGLT2 Activities
(§1) For sodium-dependent glucose transport assay, cells expressing hSGLT2 were seeded into a 96-well culture plate at a density of 5×10^4 cells/well in RPMI medium 1640 containing 10% fetal bovine serum. The cells were used 1 day after plating. They were incubated in pretreatment buffer (10 mM HEPES, 5 mM Tris, 140 mM choline chloride, 2 mM KCl, 1 mM CaCl2, and 1 mM MgCl2, pH 7.4) at 37° C. for 10 min. They were then incubated in uptake buffer (10 mM HEPES, 5 mM Tris, 140 mM NaCl, 2 mM KCl, 1 mM CaCl2, 1 mM MgCl2, and 1 mM ^14C-nonlabeled AMG pH 7.4) containing ^14C-labeled AMG (8 μM) and the inventive compound or dimethyl sulfoxide (DMSO) vehicle at 37° C. for 2 h. Cells were washed twice with washing buffer (pretreatment buffer containing 10 mM AMG at room temperature) and then the radioactivity was measured using a liquid scintillation counter. IC50 was determined by nonlinear regression analysis using GraphPad PRISM [Katsuno, K. et al. J. Pharmacol. Exp. Ther. 2007, 320, 323-330; Han, S. et al. Diabetes, 2008, 57, 1723-1729].

Human SGLT1 (hSGLT1) = Human SGLT1 (hSGLT1) (Homo sapiens (Human), UniProt P13866); test: Inhibitory effects on human SGLT1 activities (14C-AMG uptake, sodium-dependent glucose transport assay); format: cell-based; settings: 37° C. for 2 h, single determinations
Method: Test 3: Inhibitory Effects on Human SGLT1 Activities
as §1, with “^14C-labeled” for “^14C-labeled AMG”, “inhibitor” for “the inventive compound”, “PRISM.” for “PRISM [Katsuno, K. et al. J. Pharmacol. Exp. Ther. 2007, 320, 323-330; Han, S. et al. Diabetes, 2008, 57, 1723-1729].”

Human SGLT1 (hSGLT1), sequence (P13866 whole entry): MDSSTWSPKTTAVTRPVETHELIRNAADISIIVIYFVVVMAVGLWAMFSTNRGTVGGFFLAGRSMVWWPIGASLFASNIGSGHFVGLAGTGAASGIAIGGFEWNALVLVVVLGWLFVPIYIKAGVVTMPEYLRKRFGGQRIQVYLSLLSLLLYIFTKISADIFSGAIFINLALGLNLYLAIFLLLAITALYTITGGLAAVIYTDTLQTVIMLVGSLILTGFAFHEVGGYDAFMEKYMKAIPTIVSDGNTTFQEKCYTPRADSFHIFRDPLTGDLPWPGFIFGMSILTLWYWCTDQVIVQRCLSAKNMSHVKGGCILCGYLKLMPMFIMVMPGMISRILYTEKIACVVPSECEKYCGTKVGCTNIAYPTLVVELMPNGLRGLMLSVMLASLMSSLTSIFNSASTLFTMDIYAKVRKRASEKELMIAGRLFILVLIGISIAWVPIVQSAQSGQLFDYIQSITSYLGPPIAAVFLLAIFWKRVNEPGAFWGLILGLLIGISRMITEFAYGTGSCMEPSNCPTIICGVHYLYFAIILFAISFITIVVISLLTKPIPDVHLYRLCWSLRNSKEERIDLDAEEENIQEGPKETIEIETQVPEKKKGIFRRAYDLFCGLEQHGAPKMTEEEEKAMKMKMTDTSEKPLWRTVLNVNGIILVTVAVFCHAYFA
Human SGLT2 (hSGLT2), sequence (P31639 whole entry): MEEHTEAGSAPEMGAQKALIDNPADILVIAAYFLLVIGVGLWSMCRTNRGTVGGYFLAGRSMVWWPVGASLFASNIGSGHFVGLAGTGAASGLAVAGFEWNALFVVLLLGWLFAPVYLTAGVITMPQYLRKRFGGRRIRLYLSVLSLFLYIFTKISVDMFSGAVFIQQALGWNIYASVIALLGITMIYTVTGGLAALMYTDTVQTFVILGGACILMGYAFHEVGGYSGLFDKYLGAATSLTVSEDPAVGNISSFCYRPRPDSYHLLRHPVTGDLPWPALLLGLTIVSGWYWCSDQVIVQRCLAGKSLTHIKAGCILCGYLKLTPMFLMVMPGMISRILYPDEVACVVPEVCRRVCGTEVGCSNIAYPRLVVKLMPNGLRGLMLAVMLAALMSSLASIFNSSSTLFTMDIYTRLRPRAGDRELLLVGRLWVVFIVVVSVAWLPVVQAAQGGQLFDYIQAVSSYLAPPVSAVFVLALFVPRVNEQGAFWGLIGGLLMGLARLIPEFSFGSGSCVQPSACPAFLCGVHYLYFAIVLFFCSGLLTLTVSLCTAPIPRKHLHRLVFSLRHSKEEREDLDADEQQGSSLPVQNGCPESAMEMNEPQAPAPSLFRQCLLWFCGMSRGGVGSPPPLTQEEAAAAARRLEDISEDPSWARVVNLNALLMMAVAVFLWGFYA

Row | SMILES | IC50 (Human SGLT2 (hSGLT2)) [nM] | IC50 (Human SGLT1 (hSGLT1)) [nM]
1 | COc1ccc(Cc2cc([C@@H]3O[C@H](CO)[C@@H](O)[C@H](O)[C@H]3O)c3c(c2Br)CCC3)cc1 [Compound E001, (2S,3R,4R,5S,6R)-2-(7-Bromo-6-(4-methoxybenzyl)-2,3-dihydro-1H-inden-4-yl)-6-(hydroxymethyl)tetrahydro-2H-pyran-3,4,5-triol] | 0.44 | 15.2
2 | CCOc1ccc(Cc2cc([C@@H]3O[C@H](CO)[C@@H](O)[C@H](O)[C@H]3O)c3c(c2Br)CCC3)cc1 [Compound E002, (2S,3R,4R,5S,6R)-2-(7-Bromo-6-(4-ethoxybenzyl)-2,3-dihydro-1H-inden-4-yl)-6-(hydroxymethyl)tetrahydro-2H-pyran-3,4,5-triol] | 0.75 | 62.7
3 | CCc1ccc(Cc2cc([C@@H]3O[C@H](CO)[C@@H](O)[C@H](O)[C@H]3O)c3c(c2Br)CCC3)cc1 [Compound E003, (2S,3R,4R,5S,6R)-2-(7-Bromo-6-(4-ethylbenzyl)-2,3-dihydro-1H-inden-4-yl)-6-(hydroxymethyl)tetrahydro-2H-pyran-3,4,5-triol] | 0.61 | 45.4
4 | COc1ccc(Cc2cc([C@@H]3O[C@H](CO)[C@@H](O)[C@H](O)[C@H]3O)c3c(c2Cl)CCC3)cc1 [Compound E004, (2S,3R,4R,5S,6R)-2-(7-Chloro-6-(4-methoxybenzyl)-2,3-dihydro-1H-inden-4-yl)-6-(hydroxymethyl)tetrahydro-2H-pyran-3,4,5-triol] | 0.68 | 37.2
5 | COc1ccc(Cc2cc([C@@H]3O[C@H](CO)[C@@H](O)[C@H](O)[C@H]3O)c3c(c2C)CCC3)cc1 [Compound E005, (2R,3S,4R,5R,6S)-2-(Hydroxymethyl)-6-(6-(4-methoxybenzyl)-7-methyl-2,3-dihydro-1H-inden-4-yl)tetrahydro-2H-pyran-3,4,5-triol] | 0.79 | 26.8
6 | CCOc1ccc(Cc2cc([C@@H]3O[C@H](CO)[C@@H](O)[C@H](O)[C@H]3O)c3c(c2Cl)CCC3)cc1 [Compound E006, (2S,3R,4R,5S,6R)-2-(7-Chloro-6-(4-ethoxybenzyl)-2,3-dihydro-1H-inden-4-yl)-6-(hydroxymethyl)tetrahydro-2H-pyran-3,4,5-triol] | 0.55 | 116
7 | CCOc1ccc(Cc2cc([C@@H]3O[C@H](CO)[C@@H](O)[C@H](O)[C@H]3O)c3c(c2C)CCC3)cc1 [Compound E007, (2S,3R,4R,5S,6R)-2-(6-(4-Ethoxybenzyl)-7-methyl-2,3-dihydro-1H-inden-4-yl)-6-(hydroxymethyl)tetrahydro-2H-pyran-3,4,5-triol] | – | 160
8 | CCc1ccc(Cc2cc([C@@H]3O[C@H](CO)[C@@H](O)[C@H](O)[C@H]3O)c3c(c2Cl)CCO3)cc1 [Compound E008, (2S,3R,4R,5S,6R)-2-(4-Chloro-5-(4-ethylbenzyl)-2,3-dihydrobenzofuran-7-yl)-6-(hydroxymethyl)tetrahydro-2H-pyran-3,4,5-triol] | 0.88 | 44
9 | CCOc1ccc(Cc2cc([C@@H]3O[C@H](CO)[C@@H](O)[C@H](O)[C@H]3O)c3c(c2Cl)CCCO3)cc1 [Compound E009, (2S,3R,4R,5S,6R)-2-(5-Chloro-6-(4-ethoxybenzyl)chroman-8-yl)-6-(hydroxymethyl)tetrahydro-2H-pyran-3,4,5-triol] | 1.6 | 77.2
10 | COc1ccc(Cc2cc([C@@H]3O[C@H](CO)[C@@H](O)[C@H](O)[C@H]3O)c3c(c2Cl)CCCO3)cc1 [Compound E010, (2S,3R,4R,5S,6R)-2-(5-Chloro-6-(4-methoxybenzyl)chroman-8-yl)-6-(hydroxymethyl)tetrahydro-2H-pyran-3,4,5-triol] | 1.6 | 16.9
11 | CCc1ccc(Cc2cc([C@@H]3O[C@H](CO)[C@@H](O)[C@H](O)[C@H]3O)c3c(c2Cl)CCCO3)cc1 [Compound E011, (2S,3R,4R,5S,6R)-2-(5-Chloro-6-(4-ethylbenzyl)chroman-8-yl)-6-(hydroxymethyl)tetrahydro-2H-pyran-3,4,5-triol] | 0.85 | 27
12 | COc1ccc(Cc2cc([C@@H]3O[C@H](CO)[C@@H](O)[C@H](O)[C@H]3O)c3c(c2Cl)CCO3)cc1 [Compound E012, (2S,3R,4R,5S,6R)-2-(4-Chloro-5-(4-methoxybenzyl)-2,3-dihydrobenzofuran-7-yl)-6-(hydroxymethyl)tetrahydro-2H-pyran-3,4,5-triol] | 1.7 | 34.4
13 | CCOc1ccc(Cc2cc([C@@H]3O[C@H](CO)[C@@H](O)[C@H](O)[C@H]3O)c3c(c2Cl)CCO3)cc1 [Compound E013, (2S,3R,4R,5S,6R)-2-(4-Chloro-5-(4-ethoxybenzyl)-2,3-dihydrobenzofuran-7-yl)-6-(hydroxymethyl)tetrahydro-2H-pyran-3,4,5-triol] | 0.83 | 105
14 | CCc1ccc(Cc2cc([C@@H]3O[C@H](CO)[C@@H](O)[C@H](O)[C@H]3O)c3c(c2Cl)OCCC3)cc1 [Compound E014, (2S,3R,4R,5S,6R)-2-(8-Chloro-7-(4-ethylbenzyl)chroman-5-yl)-6-(hydroxymethyl)tetrahydro-2H-pyran-3,4,5-triol] | 0.75 | 61.5
15 | COc1ccc(Cc2cc([C@@H]3O[C@H](CO)[C@@H](O)[C@H](O)[C@H]3O)c3c(c2Cl)OCCO3)cc1 [Compound E015, (2S,3R,4R,5S,6R)-2-(8-Chloro-7-(4-methoxybenzyl)-2,3-dihydrobenzo[b][1,4]dioxin-5-yl)-6-(hydroxymethyl)tetrahydro-2H-pyran-3,4,5-triol] | – | 34
16 | CCc1ccc(Cc2cc([C@@H]3O[C@H](CO)[C@@H](O)[C@H](O)[C@H]3O)c3c(c2Cl)OCCO3)cc1 [Compound E016, (2S,3R,4R,5S,6R)-2-(8-Chloro-7-(4-ethylbenzyl)-2,3-dihydrobenzo[b][1,4]dioxin-5-yl)-6-(hydroxymethyl)tetrahydro-2H-pyran-3,4,5-triol] | 0.92 | 83
17 | OC[C@H]1O[C@@H](c2cc(Cc3ccc(C4CC4)cc3)c(Cl)c3c2OCC3)[C@H](O)[C@@H](O)[C@@H]1O [Compound E017, (2S,3R,4R,5S,6R)-2-(4-Chloro-5-(4-cyclopropylbenzyl)-2,3-dihydrobenzofuran-7-yl)-6-(hydroxymethyl)tetrahydro-2H-pyran-3,4,5-triol] | 1.1 | 52.2
18 | OC[C@H]1O[C@@H](c2cc(Cc3ccc(C4CC4)cc3)c(Cl)c3c2OCCC3)[C@H](O)[C@@H](O)[C@@H]1O [Compound E018, (2S,3R,4R,5S,6R)-2-(5-Chloro-6-(4-cyclopropylbenzyl)chroman-8-yl)-6-(hydroxymethyl)tetrahydro-2H-pyran-3,4,5-triol] | 0.85 | 26.6
19 | CCc1ccc(Cc2cc([C@@H]3O[C@H](CO)[C@@H](O)[C@H](O)[C@H]3O)c3c(c2Cl)CC(C)S3)cc1 (stereo partly drawn) [Compound E019, (2S,3R,4R,5S,6R)-2-(4-Chloro-5-(4-ethylbenzyl)-2-methyl-2,3-dihydrobenzo[b]thiophen-7-yl)-6-(hydroxymethyl)tetrahydro-2H-pyran-3,4,5-triol] | 0.98 | 111
20 | CCOc1ccc(Cc2cc([C@@H]3O[C@H](SC)[C@@H](O)[C@H](O)[C@H]3O)c3c(c2Cl)CC(C)O3)cc1 (stereo partly drawn) [Compound E020, (2S,3R,4R,5S,6R)-2-(4-Chloro-5-(4-ethoxybenzyl)-2-methyl-2,3-dihydrobenzofuran-7-yl)-6-(methylthio)tetrahydro-2H-pyran-3,4,5-triol] | 0.69 | 115
